“And” between values parts separate entries of the source, which are not always exact repeats. Equal values may be shown once. Read-outs that look alike come from different tables or passages of the source.
Experiments:
M3 tumor = test: M3 transplanted mice, tumor area (lidocaine and epidoxorrubicine); assay type: in vivo
HIV (RETROVIRUS) = test: Evolution of HIV infected patients (CD4+ counts); assay type: in vivo, human; conditions: for number of CD4+ cells in blood: individual patients 1-4
From the text: One group experiment consisted in 6 volunteer patients males and females aged between 22 and 35. […] Patient 5 and patient 6, just received saline by same route and frequency as treated patients.
The evolution of the disease in the analyzed patients was done by counting the number of CD4+ cells/mm³ blood and the CD4/CD8 ratio. Blood samples were collected every 15 days.
Treatment of patients started after the fourth sample extraction.

Cryptococcus neoformans = test: Cryptococcoses in experimentally infected mice; assay type: in vivo, Swiss mice; conditions: 0.1 ml 0.2% lidocaine i.p. twice a day
Method: Animals: 5-7 month old female Swiss mice were used. Experimental schedule: mice received by intraperitoneal route 0.5 ml of a suspension of 10⁷ Cryptococcus neoformans grown in Sabureaud medium.
Two animals of each group (experimental and control groups) were sacrificed at 2, 5 and 10 days post-infection and samples of liver, pancreas, brain, spleen, lung, kidney and bowel were obtained for microscopic examination.

canine parvovirus (CPV) = assay type: in vivo, dogs; conditions: for Viral titers (hemagglutination): Treated group (A): 5 ml 2% lidocaine i.v. twice a day 2 days; for Viral titers of enteric homogenates: Treated group (A), titers obtained on Vero cells

## CCN(CC)CC(=O)Nc1c(C)cccc1C [lidocaine]
M3 tumor; day 7 p-t (day 0), lidocaine 0.1 ml 0.05% every 7 days, epidoxorrubicine 0.125 ml 0.2% every 7 days, combination: lidocaine 2 days after epidoxorrubicine
  Area (tumor): 0.46
M3 tumor; day 10 p-t, saline control 103.47
  I/Ø: Percentual increment over tumor in day 0 (day 7 p-t): 18.75%
M3 tumor; day 12 p-t, regimens as Table 5 footnotes, saline control 1.56
  Area (tumor): 0.70
M3 tumor; day 12 p-t, saline control 245.61
  I/Ø: Percentual increment over tumor in day 0 (day 7 p-t): 51.56%
M3 tumor; day 14 p-t, regimens as Table 5 footnotes, saline control 2.06
  Area (tumor): 0.96
M3 tumor; day 14 p-t, saline control 357.57
  I/Ø: Percentual increment over tumor in day 0 (day 7 p-t): 107.81%
M3 tumor; day 16 p-t, regimens as Table 5 footnotes, saline control 2.78
  Area (tumor): 1.11
M3 tumor; day 16 p-t, saline control 516.74
  I/Ø: Percentual increment over tumor in day 0 (day 7 p-t): 142.19%
M3 tumor; day 18 p-t, regimens as Table 5 footnotes, saline control 3.61
  Area (tumor): 1.38
M3 tumor; day 21 p-t, regimens as Table 5 footnotes, saline control 4.61
  Area (tumor): 1.93
M3 tumor; day 23 p-t, regimens as Table 5 footnotes, saline control 5.49
  Area (tumor): 2.90
M3 tumor; day 25 p-t, regimens as Table 5 footnotes, saline control 6.24
  Area (tumor): 3.57
M3 tumor; day 25 p-t, saline control 1286.33
  I/Ø: Percentual increment over tumor in day 0 (day 7 p-t): 676.56%
HIV (RETROVIRUS); all the treated patients, controls decreased
  CD4 counting: increase or no decrease
HIV (RETROVIRUS); sample 1 (every 2 weeks), before treatment
  number of CD4+ cells in blood: 480 cells/mm³ and 294 cells/mm³ and 230 cells/mm³ and 500 cells/mm³
HIV (RETROVIRUS); sample 2, before treatment
  number of CD4+ cells in blood: 475 cells/mm³ and 294 cells/mm³ and 238 cells/mm³ and 496 cells/mm³
HIV (RETROVIRUS); sample 3, before treatment
  number of CD4+ cells in blood: 475 cells/mm³ and 280 cells/mm³ and 235 cells/mm³ and 496 cells/mm³
HIV (RETROVIRUS); sample 4, last before treatment
  number of CD4+ cells in blood: 480 cells/mm³ and 270 cells/mm³ and 234 cells/mm³ and 485 cells/mm³
Cryptococcus neoformans; 48 hours post-infection
  Microscopic examination of organs: only a generalized vascular congestion
Cryptococcus neoformans; 5 days post-infection
  Microscopic examination of organs: discrete mononuclear cell infiltrate in liver parenchyma and swelling of pancreatic tissue, with absence of inflammatory cells
Cryptococcus neoformans; day 10 pi
  Microscopic examination of organs: scarce granulomas in hepatic parenchyma
Canine parvovirus (CPV); CPV infected dogs, group A (treated), all controls died by 60 hours
  Mortality: no mortality
Canine parvovirus (CPV); 12 hrs. after first signs
  Viral titers (hemagglutination): 0 inverse of the last dilution which agglutinated sheep red cells
Canine parvovirus (CPV); 24 hrs.
  Viral titers (hemagglutination): 16 inverse of the last dilution which agglutinated sheep red cells
  Viral titers of enteric homogenates: 0.1 x 10^4 TCID₅₀/ml
Canine parvovirus (CPV); 36 hrs.
  Viral titers (hemagglutination): 320 inverse of the last dilution which agglutinated sheep red cells
  Viral titers of enteric homogenates: 0.5 x 10^7 TCID₅₀/ml
Canine parvovirus (CPV); 48 hrs.
  Viral titers (hemagglutination): 320 inverse of the last dilution which agglutinated sheep red cells
  Viral titers of enteric homogenates: 0.3 x 10^7 TCID₅₀/ml
Canine parvovirus (CPV); 60 hrs.
  Viral titers (hemagglutination): 160 inverse of the last dilution which agglutinated sheep red cells
  Viral titers of enteric homogenates: 2.3 x 10^5 TCID₅₀/ml
Canine parvovirus (CPV); 72 hrs.
  Viral titers (hemagglutination): 40 inverse of the last dilution which agglutinated sheep red cells
  Viral titers of enteric homogenates: 6.3 x 10^4 TCID₅₀/ml
Canine parvovirus (CPV); 84 hrs.
  Viral titers (hemagglutination): 40 inverse of the last dilution which agglutinated sheep red cells
  Viral titers of enteric homogenates: 5.8 x 10^4 TCID₅₀/ml
Canine parvovirus (CPV); 96 hrs.
  Viral titers (hemagglutination): 40 inverse of the last dilution which agglutinated sheep red cells
  Viral titers of enteric homogenates: 6.0 x 10^4 TCID₅₀/ml
Canine parvovirus (CPV); 12 hrs.
  Viral titers of enteric homogenates: 2.1 x 10^2 TCID₅₀/ml
Canine parvovirus (CPV); group A, after 48 hours from the beginning of treatment
  Signs of the disease: none of the animals showed signs of the disease
Canine parvovirus (CPV); group A, by 72 hours post-treatment
  Histological aspect of enteric mucosa: normal histological aspect
